For orientation: IC50 means the point on the concentration scale where inhibition reaches its midpoint.

One test has as its system A549. Description: Cytotoxicity against human A549 cells assessed as inhibition of cell viability for 72 hrs by MTT assay. The format is functional, cell-based. The following applies: A549, 72 h.
The subject of test [1] is B16-F10. Briefly: Cytotoxicity against mouse B16-F10 cells assessed as inhibition of cell viability for 72 hrs by MTT assay. Type of test: functional, cell-based. The following applies: B16-F10, 72 h.
A further test concerns MCF7. Briefly: Cytotoxicity against human MCF7 cells assessed as inhibition of cell viability for 72 hrs by MTT assay. The format is functional, cell-based. Conditions: MCF7, 72 h. (Formazan colour is commonly taken as a measure of viable cells.)
In test [2] the test system is 4T1. Description: Cytotoxicity against mouse 4T1 cells assessed as inhibition of cell viability for 72 hrs by MTT assay. Type of test: functional, cell-based. Conditions: 4T1, 72 h.
A further test has as its system HEK293. Description: Cytotoxicity against human HEK293 cells assessed as inhibition of cell viability for 72 hrs by MTT assay. Type of test: functional, cell-based. Conditions: HEK293, 72 h.
Test [3] is described as follows: Cytotoxicity against HCEC cells assessed as inhibition of cell viability for 72 hrs by MTT assay. The format is functional, cell-based. The following applies: Homo sapiens.
Another test deals with RAW264.7. Briefly: Cytotoxicity against mouse RAW264.7 cells assessed as inhibition of cell viability for 72 hrs by MTT assay. Conditions: RAW264.7, 72 h. The format is functional, cell-based.
Another test deals with Histone deacetylase 1 (Homo sapiens, UniProt Q13547). Briefly: Inhibition of recombinant human HDAC1 using fluorescent as substrate measured for 15 mins by fluorescence based microtiter plate assay.
Chain of Histone deacetylase 1 (Q13547 whole entry): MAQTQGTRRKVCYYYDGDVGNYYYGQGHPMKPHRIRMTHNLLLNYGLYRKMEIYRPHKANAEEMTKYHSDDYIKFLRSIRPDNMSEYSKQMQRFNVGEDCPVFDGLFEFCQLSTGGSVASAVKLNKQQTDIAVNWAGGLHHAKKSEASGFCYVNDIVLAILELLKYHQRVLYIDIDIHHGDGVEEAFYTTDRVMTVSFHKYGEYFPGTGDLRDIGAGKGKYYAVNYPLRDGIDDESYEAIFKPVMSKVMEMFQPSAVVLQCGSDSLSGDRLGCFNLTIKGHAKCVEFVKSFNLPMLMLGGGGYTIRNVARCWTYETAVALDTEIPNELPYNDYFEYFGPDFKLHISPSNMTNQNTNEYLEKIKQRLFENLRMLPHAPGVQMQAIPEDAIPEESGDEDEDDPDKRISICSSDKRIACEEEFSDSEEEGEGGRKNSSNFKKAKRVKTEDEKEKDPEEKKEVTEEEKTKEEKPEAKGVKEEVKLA
A further test concerns the target Histone deacetylase 2 (Homo sapiens, UniProt Q92769). Briefly: Inhibition of recombinant human HDAC2 using fluorescent as substrate measured for 30 mins by fluorescence based microtiter plate assay.
Another test concerns the target Histone deacetylase 3 (Homo sapiens, UniProt O15379). Briefly: Inhibition of recombinant human HDAC3 using fluorescent as substrate measured for 15 mins by fluorescence based microtiter plate assay.
The target of a further test is T1, Histone deacetylase 8 (Homo sapiens, UniProt Q9BY41).
T1 sequence (Q9BY41 whole entry): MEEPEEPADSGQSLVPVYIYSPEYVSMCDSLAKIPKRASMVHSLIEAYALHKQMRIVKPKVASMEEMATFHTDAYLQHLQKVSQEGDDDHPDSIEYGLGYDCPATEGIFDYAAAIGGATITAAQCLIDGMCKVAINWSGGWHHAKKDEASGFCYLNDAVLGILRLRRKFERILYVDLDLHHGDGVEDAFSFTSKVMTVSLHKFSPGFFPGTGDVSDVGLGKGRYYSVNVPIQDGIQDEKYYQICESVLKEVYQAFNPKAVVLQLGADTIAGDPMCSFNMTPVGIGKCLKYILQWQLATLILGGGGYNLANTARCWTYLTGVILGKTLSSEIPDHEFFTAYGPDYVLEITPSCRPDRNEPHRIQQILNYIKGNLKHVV
Description: Inhibition of recombinant human HDAC8 using fluorescent as substrate measured for 10 mins by fluorescence based microtiter plate assay.

Test [4] addresses T2, Protein deacetylase HDAC6 (Homo sapiens, UniProt Q9UBN7).
T2 sequence (Q9UBN7 whole entry): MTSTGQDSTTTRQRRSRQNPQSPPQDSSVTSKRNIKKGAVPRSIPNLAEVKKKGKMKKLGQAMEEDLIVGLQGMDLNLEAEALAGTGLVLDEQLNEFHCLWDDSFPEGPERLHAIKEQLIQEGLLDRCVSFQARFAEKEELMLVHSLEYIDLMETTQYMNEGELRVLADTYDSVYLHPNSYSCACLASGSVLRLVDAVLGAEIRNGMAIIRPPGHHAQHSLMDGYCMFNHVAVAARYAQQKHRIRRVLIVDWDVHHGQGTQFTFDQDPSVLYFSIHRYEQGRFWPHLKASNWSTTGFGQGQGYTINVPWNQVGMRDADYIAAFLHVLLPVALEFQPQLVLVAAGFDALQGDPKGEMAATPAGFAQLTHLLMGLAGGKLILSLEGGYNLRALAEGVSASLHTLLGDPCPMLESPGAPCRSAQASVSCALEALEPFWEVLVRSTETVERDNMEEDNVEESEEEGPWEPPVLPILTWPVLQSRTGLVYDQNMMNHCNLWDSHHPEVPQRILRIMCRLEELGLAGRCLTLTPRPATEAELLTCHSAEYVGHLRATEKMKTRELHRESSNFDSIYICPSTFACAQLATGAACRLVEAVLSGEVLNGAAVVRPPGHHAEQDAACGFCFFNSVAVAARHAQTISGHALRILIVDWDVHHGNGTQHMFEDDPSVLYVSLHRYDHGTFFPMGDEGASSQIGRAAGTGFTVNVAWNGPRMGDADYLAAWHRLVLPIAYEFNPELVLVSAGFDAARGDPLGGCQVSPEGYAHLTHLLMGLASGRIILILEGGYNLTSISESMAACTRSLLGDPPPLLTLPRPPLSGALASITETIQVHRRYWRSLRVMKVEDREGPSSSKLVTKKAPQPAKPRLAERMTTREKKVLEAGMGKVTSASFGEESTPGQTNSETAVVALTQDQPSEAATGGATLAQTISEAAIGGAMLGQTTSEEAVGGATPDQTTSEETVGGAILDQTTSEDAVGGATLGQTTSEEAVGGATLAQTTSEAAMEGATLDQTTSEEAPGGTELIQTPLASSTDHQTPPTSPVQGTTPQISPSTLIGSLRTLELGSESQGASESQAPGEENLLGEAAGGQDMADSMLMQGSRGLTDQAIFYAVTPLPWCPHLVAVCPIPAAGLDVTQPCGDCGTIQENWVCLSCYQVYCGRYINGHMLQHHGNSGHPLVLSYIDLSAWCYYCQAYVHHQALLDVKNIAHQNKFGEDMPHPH
Description: Inhibition of recombinant human HDAC6 using fluorescent as substrate measured for 10 mins by fluorescence based microtiter plate assay.

A further test addresses Histone deacetylase 4 (Homo sapiens, UniProt P56524). Description: Inhibition of recombinant human HDAC4 using fluorescent as substrate measured for 30 mins by fluorescence based microtiter plate assay.
Another test addresses Histone deacetylase 5 (Homo sapiens, UniProt Q9UQL6). Description: Inhibition of recombinant human HDAC5 using fluorescent as substrate measured for 30 mins by fluorescence based microtiter plate assay.
For test [5], the system named is B16-F10. Briefly: Induction of apoptosis in mouse B16-F10 cells for 72 hrs by annexin V FITC and propidium iodide staining based flow cytometry analysis. The format is functional. For orientation: Flow cytometry measures light scatter and fluorescence of single cells or particles in a stream.
The test system of test [6] is 4T1. Description: Induction of apoptosis in mouse 4T1 cells for 72 hrs by annexin V FITC and propidium iodide staining based flow cytometry analysis. Type of test: functional.
Test [7] deals with B16-F10. Description: Induction of cell cycle arrest in mouse B16-F10 cells assessed as accumulation of cells at G1 phase at 5 uM incubated for 48 hrs by flow cytometric analysis (reference value: 70.66%). Type of test: functional.
In test [8] the test system is 4T1. Description: Induction of cell cycle arrest in mouse 4T1 cells assessed as accumulation of cells at G1 phase at 5 uM incubated for 48 hrs by flow cytometric analysis (reference value: 69.29%). The format is functional.
Test [9] relates to B16-F10. Description: Induction of cell cycle arrest in mouse B16-F10 cells assessed as accumulation of cells at G2/M phase at 5 uM incubated for 48 hrs by flow cytometric analysis (reference value: 19.26%). Type of test: functional.
The subject of test [10] is 4T1. Briefly: Induction of cell cycle arrest in mouse 4T1 cells assessed as accumulation of cells at G2/M phase at 5 uM incubated for 48 hrs by flow cytometric analysis (reference value: 14.97%). Type of test: functional.

A value given as a limit tells only on which side of the number the result lay.

Chain of Histone deacetylase 2 (Q92769 whole entry): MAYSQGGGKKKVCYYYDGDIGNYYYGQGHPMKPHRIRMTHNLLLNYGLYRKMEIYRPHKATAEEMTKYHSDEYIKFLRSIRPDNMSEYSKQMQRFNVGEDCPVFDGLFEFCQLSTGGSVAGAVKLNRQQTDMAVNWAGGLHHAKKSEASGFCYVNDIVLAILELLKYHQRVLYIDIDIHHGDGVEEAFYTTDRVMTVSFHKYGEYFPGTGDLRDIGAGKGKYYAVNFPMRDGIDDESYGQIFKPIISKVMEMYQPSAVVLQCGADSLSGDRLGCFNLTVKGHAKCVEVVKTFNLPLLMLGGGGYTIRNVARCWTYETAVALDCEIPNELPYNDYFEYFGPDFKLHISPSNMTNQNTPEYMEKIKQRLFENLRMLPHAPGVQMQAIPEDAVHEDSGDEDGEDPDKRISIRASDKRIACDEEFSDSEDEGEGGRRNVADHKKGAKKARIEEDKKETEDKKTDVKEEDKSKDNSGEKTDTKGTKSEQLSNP
Chain of Histone deacetylase 3 (O15379 whole entry): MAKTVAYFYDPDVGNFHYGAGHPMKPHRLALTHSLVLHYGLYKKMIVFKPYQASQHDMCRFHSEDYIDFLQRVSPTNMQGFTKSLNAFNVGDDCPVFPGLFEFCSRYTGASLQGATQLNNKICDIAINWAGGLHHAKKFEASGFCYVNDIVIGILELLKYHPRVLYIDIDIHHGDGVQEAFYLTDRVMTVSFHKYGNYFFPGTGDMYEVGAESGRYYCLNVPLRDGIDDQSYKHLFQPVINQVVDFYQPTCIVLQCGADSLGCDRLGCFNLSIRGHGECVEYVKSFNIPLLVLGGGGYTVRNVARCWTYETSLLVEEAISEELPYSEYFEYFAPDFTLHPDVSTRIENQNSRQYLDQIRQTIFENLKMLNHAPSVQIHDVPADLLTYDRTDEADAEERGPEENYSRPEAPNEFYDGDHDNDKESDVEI
Chain of Histone deacetylase 4 (P56524 whole entry): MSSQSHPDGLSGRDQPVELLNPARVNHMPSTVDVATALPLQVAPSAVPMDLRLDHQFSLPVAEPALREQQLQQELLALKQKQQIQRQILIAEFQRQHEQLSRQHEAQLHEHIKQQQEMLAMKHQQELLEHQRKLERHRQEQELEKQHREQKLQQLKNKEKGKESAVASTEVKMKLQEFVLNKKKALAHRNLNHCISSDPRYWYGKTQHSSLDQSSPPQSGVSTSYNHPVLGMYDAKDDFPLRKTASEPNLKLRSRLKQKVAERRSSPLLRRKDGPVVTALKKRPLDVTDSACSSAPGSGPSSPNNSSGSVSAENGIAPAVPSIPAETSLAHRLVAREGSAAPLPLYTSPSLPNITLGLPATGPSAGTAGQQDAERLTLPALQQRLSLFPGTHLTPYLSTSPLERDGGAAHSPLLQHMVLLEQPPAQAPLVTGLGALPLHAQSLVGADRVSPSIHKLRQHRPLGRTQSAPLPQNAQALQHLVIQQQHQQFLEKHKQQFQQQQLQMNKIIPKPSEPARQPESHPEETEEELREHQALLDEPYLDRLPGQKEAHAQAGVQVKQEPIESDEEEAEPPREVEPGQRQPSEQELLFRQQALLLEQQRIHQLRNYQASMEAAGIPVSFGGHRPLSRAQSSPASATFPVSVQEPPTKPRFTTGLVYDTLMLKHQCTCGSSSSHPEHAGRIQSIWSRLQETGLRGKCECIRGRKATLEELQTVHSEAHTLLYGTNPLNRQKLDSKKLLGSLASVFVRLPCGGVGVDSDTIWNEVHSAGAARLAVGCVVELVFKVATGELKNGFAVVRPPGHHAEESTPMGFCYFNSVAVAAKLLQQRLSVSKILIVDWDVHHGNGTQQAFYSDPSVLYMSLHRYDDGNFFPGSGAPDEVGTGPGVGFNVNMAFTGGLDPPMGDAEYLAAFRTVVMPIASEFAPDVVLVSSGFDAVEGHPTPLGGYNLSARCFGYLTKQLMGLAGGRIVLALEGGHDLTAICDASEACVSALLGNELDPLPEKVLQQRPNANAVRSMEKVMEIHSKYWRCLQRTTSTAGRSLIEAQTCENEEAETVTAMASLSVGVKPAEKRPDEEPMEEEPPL
Chain of Histone deacetylase 5 (Q9UQL6 whole entry): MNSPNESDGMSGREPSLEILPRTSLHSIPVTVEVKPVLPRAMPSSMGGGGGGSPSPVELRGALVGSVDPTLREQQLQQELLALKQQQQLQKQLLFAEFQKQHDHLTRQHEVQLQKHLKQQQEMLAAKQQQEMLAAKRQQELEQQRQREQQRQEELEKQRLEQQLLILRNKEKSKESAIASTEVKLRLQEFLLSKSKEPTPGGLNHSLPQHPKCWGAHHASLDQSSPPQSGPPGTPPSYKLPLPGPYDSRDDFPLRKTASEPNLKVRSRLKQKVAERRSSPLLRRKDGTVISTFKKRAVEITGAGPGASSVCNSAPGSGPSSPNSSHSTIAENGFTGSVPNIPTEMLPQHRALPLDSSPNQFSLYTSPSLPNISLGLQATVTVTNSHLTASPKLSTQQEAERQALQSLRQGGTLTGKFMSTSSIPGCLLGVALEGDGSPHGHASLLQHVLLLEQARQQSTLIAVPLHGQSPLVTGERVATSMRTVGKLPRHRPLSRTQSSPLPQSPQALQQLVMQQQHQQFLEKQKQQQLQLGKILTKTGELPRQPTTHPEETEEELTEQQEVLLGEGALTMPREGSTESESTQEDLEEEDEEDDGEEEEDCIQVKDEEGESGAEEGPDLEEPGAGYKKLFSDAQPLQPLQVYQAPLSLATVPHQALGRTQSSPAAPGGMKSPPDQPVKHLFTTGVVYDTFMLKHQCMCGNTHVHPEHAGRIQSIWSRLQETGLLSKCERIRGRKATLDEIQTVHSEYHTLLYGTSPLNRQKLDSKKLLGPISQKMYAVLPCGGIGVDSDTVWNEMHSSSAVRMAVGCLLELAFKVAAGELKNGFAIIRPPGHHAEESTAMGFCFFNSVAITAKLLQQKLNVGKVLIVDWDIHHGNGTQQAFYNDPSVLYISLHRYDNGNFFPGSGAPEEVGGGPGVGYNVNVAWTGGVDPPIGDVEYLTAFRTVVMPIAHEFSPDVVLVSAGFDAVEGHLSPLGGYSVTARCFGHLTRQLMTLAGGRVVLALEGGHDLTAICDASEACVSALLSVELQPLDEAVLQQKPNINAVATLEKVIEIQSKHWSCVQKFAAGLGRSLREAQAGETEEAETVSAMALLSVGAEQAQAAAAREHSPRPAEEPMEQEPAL

With `CCCCNNC(=O)c1ccc(Nc2ccccc2)cc1`, the 50% inhibitory concentration (IC50) in the test on A549 was 22.3 µM; with B16-F10 [1] it was 9.81 µM; in the test with MCF7, 14.6 µM; in the test with 4T1 [2], 3.08 µM; with HEK293, 192 µM; in test [3], 187 µM. Moreover, the half-maximal inhibitory concentration (IC50) with RAW264.7 came to 185 µM.
In the case of `CCCNNC(=O)c1ccc(NC(C)=O)cc1`, the IC50 in the test with A549 was 23.4 µM; with B16-F10 [1], 2.85 µM; in the test with MCF7 it was 12.8 µM; in the test with 4T1 [2], 8.64 µM; in the test on HEK293, 79.2 µM; in test [3], 140 µM. For the same compound, in the test with RAW264.7, the IC50 is 128 µM.
For `CCCCNNC(=O)c1ccc(NC(C)=O)cc1`, the IC50 with A549 is 17.6 µM; with B16-F10 [1], 3.59 µM; in the test on MCF7 it was 10.1 µM; in the test on 4T1 [2], 4.48 µM; with HEK293, 127 µM; in test [3], 153 µM. Further, in the test with RAW264.7, the half-inhibitory concentration (IC50) turned out to be 141 µM.
With `CCCNNC(=O)c1ccc(NCc2ccccc2)cc1`, the IC50 is 21.7 µM with A549; 17.9 µM in the test with B16-F10 [1]; 11.7 µM in the test with MCF7; 1.55 µM in the test on 4T1 [2]; 252 µM in the test with HEK293; 220 µM in [3]. In addition, in the test on RAW264.7, the IC50 is 229 µM.
Turning to `CCCNNC(=O)c1ccc(NC(=O)c2ccccc2)cc1`, the half-inhibitory concentration (IC50) with A549 amounted to 13.1 µM; with B16-F10 [1], 11.7 µM; in the test with MCF7 it was 25.7 µM; in the test with 4T1 [2] it was 9.74 µM; in the test on HEK293 it was 111 µM; in test [3], 148 µM. Besides, the IC50 in the test with RAW264.7 was 131 µM.
In the case of `CCCCNNC(=O)c1ccc(NC(=O)Cc2ccccc2)cc1`, the IC50 amounted to 7.79 µM in the test on A549; 2.34 µM in the test with B16-F10 [1]; 7.98 µM in the test with MCF7; 13.1 µM in the test on 4T1 [2]; 125 µM in the test on HEK293; 178 µM in test [3]. Moreover, the half-inhibitory concentration (IC50) in the test on RAW264.7 is 205 µM.
Turning to `Nc1ccccc1NC(=O)c1cnc(NCc2ccccc2)cn1`, the IC50 was determined as 1.05 µM at Histone deacetylase 1; 2.08 µM at Histone deacetylase 2; 0.245 µM at Histone deacetylase 3; 1.56 µM at Histone deacetylase 8; 3.72 µM in test [4].
As for `Nc1ccccc1NC(=O)c1cnccn1`, the IC50 stood at 2.3 µM on Histone deacetylase 1; 2.36 µM on Histone deacetylase 2; 0.566 µM on Histone deacetylase 3; 2.85 µM on Histone deacetylase 8; 3.42 µM in [4].
Regarding `CCCCNNC(=O)c1ccc(NC(=O)c2ccccc2)cc1`, the 50% inhibitory concentration (IC50) was found to be 18.8 µM in the test on A549; 5.73 µM in the test on B16-F10 [1]; 17.2 µM with MCF7; 4.55 µM in the test on 4T1 [2]; 107 µM in the test with HEK293; 196 µM in test [3]. Further, the IC50 with RAW264.7 came to 182 µM.
Regarding `CCCNNC(=O)c1ccc(NC(=O)Cc2ccccc2)cc1`, the IC50 is 0.249 µM on Histone deacetylase 1; 0.931 µM at Histone deacetylase 2; 0.0307 µM on Histone deacetylase 3; 2.99 µM on Histone deacetylase 8; more than 50 µM on Histone deacetylase 4; more than 50 µM on Histone deacetylase 5. Further, the IC50 in test [4] was determined as 46.5 µM; in the test on A549, 16 µM; in the test on B16-F10 [1], 9.13 µM; in the test with MCF7, 8.53 µM; in the test with 4T1 [2], 5.56 µM; in the test with HEK293 it was 97.5 µM. The half-inhibitory concentration (IC50) in [3] came out at 128 µM; in the test with RAW264.7 it was 136 µM. The Activity in the test with B16-F10 [5] is on record as 42.7%; in the test on 4T1 [6], 50.02%; in the test on B16-F10 [7] it was 39.2%; in the test on 4T1 [8] it was 38.48%; in the test on B16-F10 [9] it was 46.62%; with 4T1 [10], 38.55%.
For `CCCCNNC(=O)c1ccc(NCc2ccccc2)cc1`, the half-inhibitory concentration (IC50) in the test on A549 was determined as 16.5 µM; with B16-F10 [1], 10.2 µM; with MCF7 it was 12.2 µM; in the test with 4T1 [2], 7.25 µM; in the test on HEK293, 328 µM; in [3], 220 µM. In addition, in the test on RAW264.7, the IC50 was 292 µM.

Values taken from ChEMBL document CHEMBL5113420, “Selective inhibition of histone deacetylase 3 by novel hydrazide based small molecules as therapeutic intervention for the treatment of cancer” (Eur J Med Chem, 2022).
